A word on the IC50: it is the concentration that inhibits the measured activity by half. A low value points to higher potency. Usually logP stands for a log measure of how a compound divides between an organic and an aqueous phase. Low values mean a more hydrophilic compound, high ones a more lipophilic compound.

The results in this text go back to ChEMBL document CHEMBL1127091, “Design of 5-(3,5-di-tert-butyl-4-hydroxyphenyl)-1,3,4-thiadiazoles, -1,3,4-oxadiazoles, and -1,2,4-triazoles as orally-active, nonulcerogenic antiinflammatory agents” (J Med Chem, 1993).

Data set [1] addresses T1, Polyunsaturated fatty acid 5-lipoxygenase (Rattus norvegicus, UniProt P12527).
T1 sequence (P12527 whole entry): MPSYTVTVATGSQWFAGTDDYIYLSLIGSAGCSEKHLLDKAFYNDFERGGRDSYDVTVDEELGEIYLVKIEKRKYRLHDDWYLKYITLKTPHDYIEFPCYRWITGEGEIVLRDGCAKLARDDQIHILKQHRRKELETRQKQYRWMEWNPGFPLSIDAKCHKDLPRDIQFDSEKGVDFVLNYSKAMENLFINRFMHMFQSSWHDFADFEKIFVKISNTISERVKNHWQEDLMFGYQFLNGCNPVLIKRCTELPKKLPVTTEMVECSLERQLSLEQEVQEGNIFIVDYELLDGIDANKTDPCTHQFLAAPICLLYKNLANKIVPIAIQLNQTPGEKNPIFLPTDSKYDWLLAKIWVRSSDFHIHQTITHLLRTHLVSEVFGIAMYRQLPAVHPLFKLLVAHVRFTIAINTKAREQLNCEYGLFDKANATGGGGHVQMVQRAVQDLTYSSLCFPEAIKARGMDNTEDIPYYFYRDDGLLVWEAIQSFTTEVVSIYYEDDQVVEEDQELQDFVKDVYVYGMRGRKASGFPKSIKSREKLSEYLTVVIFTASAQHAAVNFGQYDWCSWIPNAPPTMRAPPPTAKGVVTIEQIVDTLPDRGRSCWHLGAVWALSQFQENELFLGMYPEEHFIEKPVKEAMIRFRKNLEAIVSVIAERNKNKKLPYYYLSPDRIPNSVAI
Description: Inhibition of 5-lipoxygenase measured by the reduction of leukotriene B4 (LTB4) in intact basophilic rat leukemia cells

In the next data set the target is T2, Cyclooxygenase (Rattus norvegicus, UniProt P35355+Q63921).
T2 sequence (P35355 whole entry): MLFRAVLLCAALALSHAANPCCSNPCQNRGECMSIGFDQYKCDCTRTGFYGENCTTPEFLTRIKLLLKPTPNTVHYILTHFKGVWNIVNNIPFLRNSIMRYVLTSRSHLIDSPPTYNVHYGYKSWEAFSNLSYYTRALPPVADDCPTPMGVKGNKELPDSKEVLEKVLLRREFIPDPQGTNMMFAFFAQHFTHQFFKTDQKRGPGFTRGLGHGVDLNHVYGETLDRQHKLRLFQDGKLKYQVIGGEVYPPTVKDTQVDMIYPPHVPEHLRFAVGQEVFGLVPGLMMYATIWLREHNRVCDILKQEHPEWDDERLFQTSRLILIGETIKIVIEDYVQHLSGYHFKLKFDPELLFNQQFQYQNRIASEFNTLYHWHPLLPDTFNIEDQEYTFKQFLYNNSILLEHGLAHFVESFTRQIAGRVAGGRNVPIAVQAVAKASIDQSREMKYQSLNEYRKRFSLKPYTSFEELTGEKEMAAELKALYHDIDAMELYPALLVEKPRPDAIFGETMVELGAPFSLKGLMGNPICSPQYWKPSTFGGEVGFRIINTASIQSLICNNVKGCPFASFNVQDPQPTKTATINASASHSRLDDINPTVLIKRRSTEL
T2 sequence (Q63921 whole entry): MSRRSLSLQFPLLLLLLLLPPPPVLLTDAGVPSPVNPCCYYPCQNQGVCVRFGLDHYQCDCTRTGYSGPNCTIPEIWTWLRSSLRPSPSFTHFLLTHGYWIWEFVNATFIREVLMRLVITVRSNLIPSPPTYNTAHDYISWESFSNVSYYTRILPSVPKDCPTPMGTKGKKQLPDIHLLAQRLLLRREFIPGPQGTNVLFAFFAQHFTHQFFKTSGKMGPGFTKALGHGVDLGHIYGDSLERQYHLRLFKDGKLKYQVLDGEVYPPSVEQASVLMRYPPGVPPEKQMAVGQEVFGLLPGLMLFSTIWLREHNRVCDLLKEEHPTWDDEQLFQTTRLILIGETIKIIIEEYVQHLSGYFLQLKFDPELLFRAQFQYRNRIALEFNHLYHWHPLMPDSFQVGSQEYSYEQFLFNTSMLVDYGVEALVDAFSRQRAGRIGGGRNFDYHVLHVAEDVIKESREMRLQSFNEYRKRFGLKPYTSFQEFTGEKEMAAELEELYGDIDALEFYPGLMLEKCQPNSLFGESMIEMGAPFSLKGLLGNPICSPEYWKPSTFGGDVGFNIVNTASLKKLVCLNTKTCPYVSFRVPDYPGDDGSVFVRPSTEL

The nature of data set [2]: Partition coefficient (logP). Type of data set: physicochemical. As to conditions: octanol/water.
In data set [3] the test system is Rattus norvegicus. Kind of data set: In vivo inflammatory activity measured on Carrageenan foot-pad edema (CFE) in rats, peroral administration. The format is functional. On the technique in general: The carrageenan paw model is a standard test of acute inflammation.
Data set [4] deals with Rattus norvegicus. The data set can be described thus: In vivo inflammatory activity measured on Gastric ulcerogenicity, expressed as percent rats with ulcers at 200 mg/kg, po (n= 10 rats per experimental group). The format is functional, Stomach.
The test system of data set [5] is Rattus norvegicus. Kind of data set: In vivo inflammatory activity measured on Mycobacterium foot-pad edema (MFE) model, peroral administration. The format is functional.
Data set [6] concerns the target T1, Polyunsaturated fatty acid 5-lipoxygenase. This is another data set of the same source.
Description: Tested for inhibition of 5-LO by measuring the reduction of leukotriene B4 (LTB4) in intact basophilic rat leukemia cells
For data set [7], the system named is Rattus norvegicus. Kind of data set: In vivo inflammatory activity measured on Gastric ulcerogenicity (n= 10 rats per experimental group). The format is functional, Stomach.
For data set [8], the system named is Rattus norvegicus. Kind of data set: In vivo inflammatory activity measured on Gastric ulcerogenicity, expressed as percent rats with ulcers at 10 mg/kg, po (n= 10 rats per experimental group). The format is functional, Stomach.
Data set [9] has as its system Rattus norvegicus. Kind of data set: In vivo inflammatory activity measured on Mycobacterium foot-pad edema (MFE) model. Type of data set: functional.
Data set [10] concerns Rattus norvegicus. The data set can be described thus: In vivo inflammatory activity measured on Gastric ulcerogenicity, (n= 10 rats per experimental group). Type of data set: functional, Stomach.

Description for Cyclooxygenase: Inhibition of prostaglandin G/H synthase by measuring the reduction of prostaglandin F2-alpha in intact basophilic rat leukemia cells

Take `CC(C)(C)c1cc(-c2n[nH]c(N)n2)cc(C(C)(C)C)c1O`: the IC50 in data set [1] was 5100 nM; on Cyclooxygenase, more than 30 µM. Moreover, the logP in data set [2] was found to be 3.1.
Take `CC(C)(C)c1cc(-c2nnc(N)o2)cc(C(C)(C)C)c1O`: in the data set on Rattus norvegicus [3], the ID40 was 8.2 mg/kg. Further, the IC50 in data set [1] came to 700 nM; against Cyclooxygenase, 2.4 µM. In addition, the logP in [2] amounted to 3.7.
For the molecule `CC(C)(C)c1cc(-c2n[nH]c(=S)s2)cc(C(C)(C)C)c1O.C[N+](C)(C)CCO`, the Activity in the data set with Rattus norvegicus [4] is 0%. The ID40 in the data set with Rattus norvegicus [3] was determined as 1.1 mg/kg; in the data set with Rattus norvegicus [5], 7.8 mg/kg. Also, in [2], the log partition coefficient (logP) worked out at 2.7.
Take `CC(C)(C)c1cc(-c2n[nH]c(O)n2)cc(C(C)(C)C)c1O`: the IC50 against Cyclooxygenase was 5.5 µM. The molecule also returned a logP in data set [2] of 3.1.
In data set [2], `Cc1cc(/C=C/c2cc(C(C)(C)C)c(O)c(C(C)(C)C)c2)on1` returned a logP of more than 4. Moreover, the ID40 in the data set with Rattus norvegicus [5] turned out to be 33 mg/kg.
Regarding `Cn1c(S)nnc1-c1cc(C(C)(C)C)c(O)c(C(C)(C)C)c1`, the IC50 in data set [1] is more than 32000 nM; against Cyclooxygenase, more than 32 µM. In addition, in data set [2], the log partition coefficient (logP) turned out to be 3.7.
As for `CC(C)(C)c1cc(/C=C/c2nnc(O)o2)cc(C(C)(C)C)c1O`, the half-inhibitory concentration (IC50) was 210 nM in data set [1] and more than 32 µM on Cyclooxygenase. In [2], the logP amounted to 3.4.
The molecule `Cn1c(O)nnc1-c1cc(C(C)(C)C)c(O)c(C(C)(C)C)c1` displayed a logP in data set [2] of 3.2.
In the case of `CC(C)(C)c1cc(-c2n[nH]c(S)n2)cc(C(C)(C)C)c1O`, the values for the IC50 (in data set [1]; against Cyclooxygenase) were 11000 nM and 0.78 µM, respectively. The molecule also yielded a logP in data set [2] of 2.4.
As to `CSc1nnc(-c2cc(C(C)(C)C)c(O)c(C(C)(C)C)c2)s1`, the IC50 in data set [1] was found to be 1200 nM; on Cyclooxygenase it was 0.41 µM. In data set [2], the log partition coefficient (logP) is more than 4.
With `CC(C)(C)c1cc(/C=C/c2n[nH]c(O)n2)cc(C(C)(C)C)c1O`, the IC50 in data set [1] was 1600 nM; against Cyclooxygenase it was more than 32 µM. In data set [2], this molecule registered a logP of 3.8.
On to `CC(C)(C)c1cc(/C=C/c2nnc(N)o2)cc(C(C)(C)C)c1O`, for which the figures for the IC50 (in data set [1]; at Cyclooxygenase) were 1100 nM and 8 µM, respectively.
Turning to `CC(C)(C)c1cc(-c2nnc(O)s2)cc(C(C)(C)C)c1O`, the values for the IC50 (in data set [1]; against Cyclooxygenase) were 5900 nM and more than 16 µM, respectively. In addition, the log partition coefficient (logP) in [2] came out at 4.
For the molecule `COc1c(C(C)(C)C)cc(-c2nnc(S)s2)cc1C(C)(C)C`, the values for the IC50 (in data set [6]; against Cyclooxygenase) were 920 nM and 0.35 µM, respectively.
`CC(C)(C)c1cc(-c2nnc(O)o2)cc(C(C)(C)C)c1O`: the IC50 against Cyclooxygenase turned out to be 2.5 µM. Besides, in data set [2], the lipophilicity (logP) turned out to be 3.4.
For the molecule `Cn1nc(-c2cc(C(C)(C)C)c(O)c(C(C)(C)C)c2)sc1=S`, the IC50 in [6] is 5000 nM; against Cyclooxygenase, 0.65 µM.
As for `CC(C)(C)c1cc(/C=C/c2nnc(S)o2)cc(C(C)(C)C)c1O`, the IC50 was determined as 580 nM in [1] and 9.4 µM against Cyclooxygenase. The logP in data set [2] was 3.
The matching figures for `CC(C)(C)c1cc(-c2nnc(S)n2N)cc(C(C)(C)C)c1O`: more than 32000 nM, more than 32 µM and 3.3.
Consider `CSc1nnc(/C=C/c2cc(C(C)(C)C)c(O)c(C(C)(C)C)c2)s1`, for which the IC50 in data set [1] is more than 10000 nM; at Cyclooxygenase, more than 10 µM.
Consider `CC(C)(C)c1cc(/C=C/c2n[nH]c(S)n2)cc(C(C)(C)C)c1O`, for which the IC50 was 2400 nM in data set [1] and 6.7 µM against Cyclooxygenase. Besides, in data set [2], the logP worked out at 3.1.
With `CC(C)(C)c1cc(-c2nnc(S)o2)cc(C(C)(C)C)c1O`, the values for the ID40 in the data set on Rattus norvegicus [3] and in the data set on Rattus norvegicus [5] were 3.9 mg/kg and 59.9 mg/kg, respectively. Besides, the half-inhibitory concentration (IC50) is 4800 nM in [1] and 3.7 µM on Cyclooxygenase. Moreover, the logP in data set [2] was determined as 2.3.
Take `CC(C)(C)c1cc(-c2nnc(N)s2)cc(C(C)(C)C)c1O`: in the data set with Rattus norvegicus [4], the Activity was determined as 10%. For the same molecule, the values for the ID40 with Rattus norvegicus [3] and in the data set on Rattus norvegicus [5] were 1.9 mg/kg and 2.3 mg/kg, respectively. The IC50 against Cyclooxygenase was determined as 0.13 µM. The molecule further displayed a logP in [2] of 3.7.
`CC(C)(C)c1cc(/C=C2\CCOC2=O)cc(C(C)(C)C)c1O`: the UD50 in the data set on Rattus norvegicus [7] is 93.1 mg/kg. Besides, the ID40 in the data set on Rattus norvegicus [3] was more than 10 mg/kg; in the data set with Rattus norvegicus [5] it was 3.7 mg/kg. Moreover, the logP in data set [2] is more than 4.
For `CC(C)(C)c1cc(/C=C/c2nnc(S)s2)cc(C(C)(C)C)c1O`, the IC50 in data set [1] worked out at 1800 nM; on Cyclooxygenase, 5.2 µM. In data set [2], this molecule yielded a logP of more than 4.
Regarding `CON1CC/C(=C\c2cc(C(C)(C)C)c(O)c(C(C)(C)C)c2)C1=O` [E-5110], the Activity in the data set on Rattus norvegicus [8] is listed as 10%. The ID40 in the data set with Rattus norvegicus [3] was 24.1 mg/kg; in the data set on Rattus norvegicus [9], 1.9 mg/kg. Besides, the log partition coefficient (logP) in [2] was more than 4.
With `Cc1ccc(Cl)c(Nc2ccccc2C(=O)O)c1Cl` [MECLOFENAMIC ACID], the ID40 with Rattus norvegicus [3] is 5.6 mg/kg; in the data set with Rattus norvegicus [5] it was 0.35 mg/kg. In the data set on Rattus norvegicus [10], the UD50 was 36.2 mg/kg.
